Experimental data taken from patent US20240245658A1, “TAAR1 AND SEROTONIN MODULATORS, AND PHARMACEUTICAL COMPOSITIONS, AND METHODS OF USE THEREOF” (Sunovion Pharmaceuticals Inc., priority 2021, published 2024).
Like-named read-outs stand apart in the source and are kept apart here.

Assays:
Assay type in all cases: cell-based
human TAAR1 receptors = biological target: T1, human TAAR1 receptors (Homo sapiens, UniProt Q96RJ0); test: TAAR1 Agonism Assay: cAMP HTRF assay for Gs coupled receptor TAAR1 (Euroscreen FAST-0987C); conditions: CHO-K1 cells expressing human TAAR1, cAMP HTRF
T1 construct: host or cells: CHO-K1
T1 sequence (Q96RJ0 1-339): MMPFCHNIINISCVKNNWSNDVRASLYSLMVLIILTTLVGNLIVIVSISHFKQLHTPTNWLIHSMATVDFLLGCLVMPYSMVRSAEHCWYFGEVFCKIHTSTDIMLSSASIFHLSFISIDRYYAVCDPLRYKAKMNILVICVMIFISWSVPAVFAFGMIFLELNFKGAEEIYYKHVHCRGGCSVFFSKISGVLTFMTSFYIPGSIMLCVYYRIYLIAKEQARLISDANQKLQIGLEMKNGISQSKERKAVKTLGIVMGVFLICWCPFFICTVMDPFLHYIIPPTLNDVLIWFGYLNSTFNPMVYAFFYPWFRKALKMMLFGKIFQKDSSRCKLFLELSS
Procedure, shortened: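 cAMP accumulation detected by HTRF fluorescence ratio, reagents added in lysis buffer and incubated 1 h at about room temperature. Beforehand, cells (about 3,000 per well) sat with test compound at ten concentrations from 0.3 to 10,000 nM in duplicate for roughly 30 min at about room temperature; tyramine dose-response run alongside.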

human 5-HT2A receptor = biological target: T2, human 5-HT2A receptor (Homo sapiens, UniProt P28223); test: 5HT2A Antagonism Assay (Euroscreen FAST-05051), IP-One HTRF
T2 construct: host or cells: CHO-K1
T2 sequence (P28223 whole entry): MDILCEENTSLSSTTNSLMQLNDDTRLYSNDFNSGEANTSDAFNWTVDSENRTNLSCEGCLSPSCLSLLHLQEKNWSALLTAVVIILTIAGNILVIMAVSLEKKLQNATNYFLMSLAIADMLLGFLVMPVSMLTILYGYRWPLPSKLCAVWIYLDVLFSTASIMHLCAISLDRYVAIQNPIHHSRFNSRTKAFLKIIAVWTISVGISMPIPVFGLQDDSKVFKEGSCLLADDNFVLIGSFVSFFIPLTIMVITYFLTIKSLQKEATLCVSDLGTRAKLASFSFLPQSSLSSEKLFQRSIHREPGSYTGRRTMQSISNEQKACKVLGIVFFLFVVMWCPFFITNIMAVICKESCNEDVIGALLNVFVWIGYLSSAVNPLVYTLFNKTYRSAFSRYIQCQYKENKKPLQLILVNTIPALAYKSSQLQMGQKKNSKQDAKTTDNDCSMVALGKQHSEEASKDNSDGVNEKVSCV
Procedure, shortened: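 CHO-K1 cells expressing receptor, 20,000/well, co-incubated with test compound and reference agonist at its EC80 for 60 min at 37 °C. IP1 accumulation read by HTRF after ~1 h detection at room temperature. Compounds tested in duplicate at 0.3–10,000 nM.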

human 5-HT7 receptor = biological target: T3, human 5-HT7 receptor (Homo sapiens, UniProt P34969); test: 5HT7 Antagonism Assay (Euroscreen FAST-0499C), cAMP HTRF; conditions: CHO-K1 cells expressing human 5-HT7, reference agonist at EC80, cAMP HTRF
T3 construct: host or cells: CHO-K1
T3 sequence (P34969 whole entry): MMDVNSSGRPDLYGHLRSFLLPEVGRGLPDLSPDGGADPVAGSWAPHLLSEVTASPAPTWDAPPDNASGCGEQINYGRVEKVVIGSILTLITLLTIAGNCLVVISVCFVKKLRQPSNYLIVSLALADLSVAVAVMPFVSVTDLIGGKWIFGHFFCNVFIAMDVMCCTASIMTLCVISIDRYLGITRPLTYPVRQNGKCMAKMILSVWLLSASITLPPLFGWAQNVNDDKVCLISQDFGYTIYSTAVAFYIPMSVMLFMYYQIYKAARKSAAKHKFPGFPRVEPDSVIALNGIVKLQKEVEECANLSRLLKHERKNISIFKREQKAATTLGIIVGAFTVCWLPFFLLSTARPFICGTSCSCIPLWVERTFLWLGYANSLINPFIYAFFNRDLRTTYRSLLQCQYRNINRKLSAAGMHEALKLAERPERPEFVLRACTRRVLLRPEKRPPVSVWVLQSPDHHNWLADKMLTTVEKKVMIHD
Procedure, shortened: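 CHO-K1 cells expressing human 5-HT7, 3000 per well in Krebs-Ringer HEPES with 1 mM IBMX, were exposed for 30 minutes at room temperature to compound plus reference agonist at its EC80. cAMP was read by HTRF after 1 hour; compounds were tested in duplicate from 0.3 to 10,000 nM.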

[1] = 5-HT2A (IC50), CHO-K1 cells expressing human 5-HT2A, reference agonist at EC80, IP-One
[2] = CHO-K1 cells expressing human 5-HT2A, reference agonist at EC80, IP-One, read-out: 5-HT2A (IC50)
[3] = read-out: 5-HT2A (IC50), CHO-K1 cells expressing human 5-HT2A, reference agonist at EC80, IP-One

Row | SMILES | EC50 (human TAAR1 receptors) | IC50 (human 5-HT2A receptor; [1]) | IC50 (human 5-HT7 receptor) | IC50 (human 5-HT2A receptor; [2]) | IC50 (human 5-HT2A receptor; [3])
1 | CCc1ccc2c(n1)C(CNC)Cc1ccccc1O2 (single isomer, unassigned) [Compound 152, (R*)-(2-ethyl-10,11-dihydrobenzo[6,7]oxepino[3,2-b]pyridin-11-yl)-N-methylmethanamine] | < 1 µM | < 1 µM | 1 to 10 µM |  | 
2 | NCC1Cc2c(F)cncc2Oc2ccccc21 (single isomer, unassigned) [Compound 153, (R*)-(4-fluoro-5,6-dihydrobenzo[6,7]oxepino[2,3-c]pyridin-6-yl)methanamine] | < 1 µM | < 1 µM | ≥ 10 µM |  | 
3 | NCC1Cc2c(F)cncc2Oc2ccccc21 (single isomer, unassigned) [Compound 154, (S*)-(4-fluoro-5,6-dihydrobenzo[6,7]oxepino[2,3-c]pyridin-6-yl)methanamine] | > 10 µM | 1 to 10 µM | ≥ 10 µM |  | 
4 | NCC1Cc2ncccc2Oc2cccc(F)c21 (single isomer, unassigned) [Compound 156, (S*)-(9-fluoro-10,11-dihydrobenzo[6,7]oxepino[3,2-b]pyridin-10-yl)methanamine] | < 1 µM | > 10 µM | ≥ 10 µM |  | 
5 | CNCC1Cc2ncccc2Oc2cccc(F)c21 (single isomer, unassigned) [Compound 158, (S*)-(9-fluoro-10,11-dihydrobenzo[6,7]oxepino[3,2-b]pyridin-10-yl)-N-methylmethanamine] | 1 to 10 µM |  | ≥ 10 µM | > 10 µM | 
6 | N#Cc1ccc2c(c1)C(CN)Cc1ncccc1O2 (single isomer, unassigned) [Compound 159, (R*)-10-(aminomethyl)-10,11-dihydrobenzo[6,7]-oxepino[3,2-b]pyridine-8-carbonitrile] | 1 to 10 µM | > 10 µM | ≥ 10 µM |  | 
7 | N#Cc1ccc2c(c1)C(CN)Cc1ncccc1O2 (single isomer, unassigned) [Compound 160, (S*)-10-(aminomethyl)-10,11-dihydrobenzo[6,7]oxepino[3,2-b]pyridine-8-carbonitrile] | < 1 µM | < 1 µM | 1 to 10 µM |  | 
8 | CNCC1Cc2ncccc2Oc2ccc(C#N)cc21 (single isomer, unassigned) [Compound 161, (R*)-10-((methylamino)methyl)-10,11-dihydrobenzo[6,7]oxepino[3,2-b]pyridine-8-carbonitrile] | > 10 µM |  | ≥ 10 µM | 1 to 10 µM | 
9 | CNCC1Cc2ncccc2Oc2ccc(C#N)cc21 (single isomer, unassigned) [Compound 162, (S*)-10-((methylamino)methyl)-10,11-dihydrobenzo[6,7]oxepino[3,2-b]pyridine-8-carbonitrile] | > 10 µM |  | ≥ 10 µM | 1 to 10 µM | 
10 | NCC1Cc2ncccc2Oc2ccc(F)cc21 (single isomer, unassigned) [Compound 163, (R*)-(8-fluoro-10,11-dihydrobenzo[6,7]oxepino[3,2-b]pyridin-10-yl)methanamine] | 1 to 10 µM | 1 to 10 µM | ≥ 10 µM |  | 
11 | NCC1Cc2ncccc2Oc2ccc(F)cc21 (single isomer, unassigned) [Compound 164, (S*)-(8-fluoro-10,11-dihydrobenzo[6,7]oxepino[3,2-b]pyridin-10-yl)methanamine] | < 1 µM |  | ≥ 10 µM |  | 1 to 10 µM
12 | CNCC1Cc2ncccc2Oc2ccc(F)cc21 (single isomer, unassigned) [Compound 165, (R*)-(8-fluoro-10,11-dihydrobenzo[6,7]oxepino[3,2-b]pyridin-10-yl)-N-methylmethanamine] | > 10 µM | < 1 µM | ≥ 10 µM |  | 
13 | CNCC1Cc2ncccc2Oc2ccc(F)cc21 (single isomer, unassigned) [Compound 166, (S*)-(8-fluoro-10,11-dihydrobenzo[6,7]oxepino[3,2-b]pyridin-10-yl)-N-methylmethanamine] | < 1 µM |  | 1 to 10 µM |  | < 1 µM
14 | NCC1Cc2ncccc2Oc2ccc(Cl)cc21 (single isomer, unassigned) [Compound 167, (R*)-(8-chloro-10,11-dihydrobenzo[6,7]oxepino[3,2-b]pyridin-10-yl)methanamine] | < 1 µM | 1 to 10 µM | ≥ 10 µM |  | 
15 | CNCC1Cc2ncccc2Oc2ccc(Cl)cc21 (single isomer, unassigned) [Compound 170, (S*)-1-(8-chloro-10,11-dihydrobenzo[6,7]oxepino[3,2-b]pyridin-10-yl)-N-methylmethanamine] | < 1 µM | < 1 µM | < 1 µM |  | 
16 | NCC1Cc2ncccc2Oc2cc(Cl)ccc21 (single isomer, unassigned) [Compound 171, (R*)-(7-chloro-10,11-dihydrobenzo[6,7]oxepino[3,2-b]pyridin-10-yl)methanamine] | 1 to 10 µM | < 1 µM | ≥ 10 µM |  | 
17 | NCC1Cc2ncccc2Oc2cc(Cl)ccc21 (single isomer, unassigned) [Compound 172, (S*)-(7-chloro-10,11-dihydrobenzo[6,7]oxepino[3,2-b]pyridin-10-yl)methanamine] | < 1 µM |  | ≥ 10 µM |  | < 1 µM
18 | CNCC1Cc2ncccc2Oc2cc(Cl)ccc21 (single isomer, unassigned) [Compound 173, (R*)-1-(7-chloro-10,11-dihydrobenzo[6,7]oxepino[3,2-b]pyridin-10-yl)-N-methylmethanamine] | > 10 µM |  | ≥ 10 µM | < 1 µM | 
19 | CNCC1Cc2ncccc2Oc2cc(Cl)ccc21 (single isomer, unassigned) [Compound 174, (S*)-1-(7-chloro-10,11-dihydrobenzo[6,7]oxepino[3,2-b]pyridin-10-yl)-N-methylmethanamine] | > 10 µM |  | 1 to 10 µM | < 1 µM | 
20 | NCC1Cc2ncccc2Oc2c(F)cccc21 (single isomer, unassigned) [Compound 176, (S*)-(6-fluoro-10,11-dihydrobenzo[6,7]oxepino[3,2-b]pyridin-10-yl)methanamine] | < 1 µM | > 10 µM | ≥ 10 µM |  | 
21 | NCC1Cc2ncc(Cl)cc2Oc2ccccc21 (single isomer, unassigned) [Compound 179, (R*)-(3-chloro-10,11-dihydrobenzo[6,7]oxepino[3,2-b]pyridin-10-yl)methanamine] | 1 to 10 µM | 1 to 10 µM | ≥ 10 µM |  | 
22 | NCC1Cc2ncc(Cl)cc2Oc2ccccc21 (single isomer, unassigned) [Compound 180, (S*)-(3-chloro-10,11-dihydrobenzo[6,7]oxepino[3,2-b]pyridin-10-yl)methanamine] | < 1 µM |  | ≥ 10 µM |  | 1 to 10 µM
23 | C[C@@H]1c2ccccc2Oc2cccnc2[C@@H]1CN (stereo in doubt) [Compound 112, ((10S*,11S*)-10-methyl-10,11-dihydrobenzo[6,7]oxepino[3,2-b]pyridin-11-yl)methanamine] | < 1 µM | > 10 µM | ≥ 10 µM |  | 
24 | C[C@@H]1c2ccccc2Oc2cccnc2[C@H]1CN (stereo in doubt) [Compound 114, ((10S*,11R*)-10-methyl-10,11-dihydrobenzo[6,7]oxepino[3,2-b]pyridin-11-yl)methanamine] | < 1 µM | 1 to 10 µM | ≥ 10 µM |  | 
